Measurements from publication PMC9304929, “The Cholesterol-Binding Sequence in Monomeric C-Reactive Protein Binds to the SARS-CoV-2 Spike Receptor-Binding Domain and Blocks Interaction With Angiotensin-Converting Enzyme 2” (Frontiers in Immunology, 2022).

System: SARS-CoV-2 spike RBD
Assay: Spike RBD-mCRP binding ELISA
Settings: His-tagged proteins expressed in E. coli, n = 3
Procedure: The interactions of the spike-RBD with mCRP or CRP were also examined by enzyme-linked immunosorbent assay (ELISA) using mCRP/CRP-specific mAbs. Briefly, 100 μL of spike-RBD (1μg/mL) in Tris-buffered saline (TBS; 10 mM Tris, 140 mM NaCl, pH 7.4) was added per well to coat in 96-well microplates overnight at 4°C. The wells were then washed three times with TBS containing 0.02% Tween-20 for 5 min and blocked with 1% bovine serum albumin (BSA) in TBS for 1 h at 37°C. Next, mCRP was added and the plates were incubated for 1 h at 37°C. The color was developed by adding tetramethyl benzidine (TMB) to the wells and the color development was stopped with 1 M H2SO4.

WT mCRP
binding of mCRP wild type or mutants to the spike RBD (ELISA): bound
